pIC50: −log10 of the molar value.
Experiments:
HT-29 [1] = assay: Induction of apoptosis in human HT-29 cells assessed as necrotic cells at 10 nM after 48 hrs by Annexin V-FITC/PI staining based flow cytometry (Rvb=0.82%); assay type: functional
HT-29 [2] = assay: Induction of apoptosis in human HT-29 cells assessed as reduction in mitochondrial membrane potential at 10 nM after 48 hrs by JC-1 staining based flow cytometry (reference value: 94.3%); assay type: functional; design: scale not given: the % may be the effect or the level left
HT-29 [3] = assay: Induction of apoptosis in human HT-29 cells assessed as viable cells at 10 nM after 48 hrs by Annexin V-FITC/PI staining based flow cytometry (Rvb=93.82%); assay type: functional; conditions: HT-29, 48 h, read-out: Activity
HT-29 [4] = assay: Induction of apoptosis in human HT-29 cells assessed as late apoptotic cells at 10 nM after 48 hrs by Annexin V-FITC/PI staining based flow cytometry (Rvb=4.06%); assay type: functional
HepG2 = assay: cells; conditions: Homo sapiens, HepG2, 48 h
Description: Cytotoxicity against human HepG2 cells after 48 hrs by MTT assay

HT-29 [5] = assay: Cell cycle arrest in human HT-29 cells assessed as accumulation at G2/M phase at 10 nM after 48 hrs by propidium iodide staining based flow cytometry (reference value: 12.47%); assay type: functional
HT-29 [6] = assay: Induction of apoptosis in human HT-29 cells assessed as early apoptotic cells at 10 nM after 48 hrs by Annexin V-FITC/PI staining based flow cytometry (Rvb=1.30%); assay type: functional
MCF7 = assay: cells; conditions: Homo sapiens, MCF7, 48 h
Description: Cytotoxicity against human MCF7 cells after 48 hrs by MTT assay

HT-29 [7] = assay: Cell cycle arrest in human HT-29 cells assessed as accumulation at S phase at 10 nM after 48 hrs by propidium iodide staining based flow cytometry (reference value: 3.02%); assay type: functional
[8] = Cytotoxicity against human DU145 cells after 48 hrs by MTT assay; assay type: functional, cell-based; conditions: DU-145, 48 h
HT-29 [9] = assay: Cytotoxicity against human HT-29 cells after 48 hrs by MTT assay; assay type: functional, cell-based; conditions: HT-29, 48 h
HT-29 [10] = assay: Cell cycle arrest in human HT-29 cells assessed as accumulation at sub G1 phase at 10 nM after 48 hrs by propidium iodide staining based flow cytometry (reference value: 1.00%); assay type: functional
A549 = assay: cells; conditions: Homo sapiens, A549, 48 h
Description: Cytotoxicity against human A549 cells after 48 hrs by MTT assay

HT-29 [11] = assay: Cell cycle arrest in human HT-29 cells assessed as accumulation at G0/G1 phase at 10 nM after 48 hrs by propidium iodide staining based flow cytometry (reference value: 83.01%); assay type: functional
HT-29 [12] = assay: Cell cycle arrest in human HT-29 cells assessed as accumulation at G2/M phase at 50 nM after 48 hrs by propidium iodide staining based flow cytometry (reference value: 12.47%); assay type: functional
HT-29 [13] = assay: Induction of apoptosis in human HT-29 cells assessed as early apoptotic cells at 50 nM after 48 hrs by Annexin V-FITC/PI staining based flow cytometry (Rvb=1.30%); assay type: functional
Tubulin = Tubulin (Sus scrofa, UniProt P02554+P02550); assay: Inhibition of porcine brain tubulin polymerization after 1 hr by fluorescence assay
HT-29 [14] = assay: Cell cycle arrest in human HT-29 cells assessed as accumulation at S phase at 50 nM after 48 hrs by propidium iodide staining based flow cytometry (reference value: 3.02%); assay type: functional
HT-29 [15] = assay: Induction of apoptosis in human HT-29 cells assessed as necrotic cells at 50 nM after 48 hrs by Annexin V-FITC/PI staining based flow cytometry (Rvb=0.82%); assay type: functional
HT-29 [16] = assay: Cell cycle arrest in human HT-29 cells assessed as accumulation at sub G1 phase at 50 nM after 48 hrs by propidium iodide staining based flow cytometry (reference value: 1.00%); assay type: functional
HT-29 [17] = assay: Induction of apoptosis in human HT-29 cells assessed as late apoptotic cells at 50 nM after 48 hrs by Annexin V-FITC/PI staining based flow cytometry (Rvb=4.06%); assay type: functional
HT-29 [18] = assay: Cell cycle arrest in human HT-29 cells assessed as accumulation at G0/G1 phase at 50 nM after 48 hrs by propidium iodide staining based flow cytometry (reference value: 83.01%); assay type: functional
HT-29 [19] = assay: Induction of apoptosis in human HT-29 cells assessed as reduction in mitochondrial membrane potential at 50 nM after 48 hrs by JC-1 staining based flow cytometry (reference value: 94.3%); assay type: functional; design: scale not given: the % may be the effect or the level left
HT-29 [20] = assay: Induction of apoptosis in human HT-29 cells assessed as viable cells at 50 nM after 48 hrs by Annexin V-FITC/PI staining based flow cytometry (Rvb=93.82%); assay type: functional; conditions: HT-29, 48 h, read-out: Activity

Row | Structure (SMILES) | pIC50 (HepG2) | pIC50 (MCF7) | pIC50 (A549) | pIC50 [8] | pIC50 (HT-29 [9]) | other results
1 | COc1ccc(/C=C\c2cc(OC)c(OC)c(OC)c2)cc1O [COMBRETASTATIN A4] | 7.64 | 7.34 | 7.29 | 8.15 | 7.31 | Activity (HT-29 [1]): 2.93%; Activity (HT-29 [2]): 84.2%; viability at 0.01 µM (HT-29 [3]): 73.4%; Activity (HT-29 [4]): 20.21%; Activity (HT-29 [5]): 45.76%; Activity (HT-29 [6]): 3.46%; Activity (HT-29 [7]): 2.62%; Activity (HT-29 [10]): 0.16%; Activity (HT-29 [11]): 51.46%
2 | C=C(c1ccc(OC)c(/C=C2/C(=O)Nc3ccc(Cl)cc32)c1)c1cc(OC)c(OC)c(OC)c1 | 5.25 | 4.82 | 4.96 | 4.41 | 5.37 | 
3 | C=C(c1ccc(OC)c(/C=C2/C(=O)Nc3ccc([N+](=O)[O-])cc32)c1)c1cc(OC)c(OC)c(OC)c1 | 5.43 | 4.88 | 5.24 | 4.71 | 5.87 | 
4 | COc1ccc(C(=O)c2cc(OC)c(OC)c(OC)c2)cc1/C=C1/C(=O)Nc2ccccc21 | 5.42 | 4.97 | 5.17 | 4.57 | 5.56 | 
5 | COc1ccc(C(=O)c2cc(OC)c(OC)c(OC)c2)cc1/C=C1/C(=O)Nc2ccc([N+](=O)[O-])cc21 | 5.16 | 4.91 | 5.05 | 4.45 | 5.29 | 
6 | C=C(c1ccc(OC)c(/C=C2/C(=O)Nc3ccccc32)c1)c1cc(OC)c(OC)c(OC)c1 | 5.12 | 4.69 | 4.94 | 4.59 | 5.19 | 
7 | C=C(c1ccc(OC)c(/C=C2/C(=O)Nc3ccc(Br)cc32)c1)c1cc(OC)c(OC)c(OC)c1 | 5.08 | 4.74 | 5.13 | 4.72 | 5.25 | 
8 | COc1ccc(C(=O)c2cc(OC)c(OC)c(OC)c2)cc1/C=C1/C(=O)Nc2cc(Br)ccc21 | 5.40 | 4.83 | 5.34 | 4.92 | 5.43 | 
9 | COc1ccc(C(=O)c2cc(OC)c(OC)c(OC)c2)cc1/C=C1/C(=O)Nc2cc(Cl)ccc21 | 4.80 | 4.80 | 4.92 | 4.49 | 4.87 | 
10 | COc1ccc(C(=O)c2cc(OC)c(OC)c(OC)c2)cc1/C=C1/C(=O)Nc2ccc(Br)cc21 | 5.09 | 4.51 | 5.01 | 4.72 | 5.07 | 
11 | C=C(c1ccc(OC)c(/C=C2/C(=O)Nc3cc(Br)ccc32)c1)c1cc(OC)c(OC)c(OC)c1 | 4.98 | 4.68 | 4.90 | 4.68 | 5.08 | 

Further compounds by rising pIC50 (HepG2), results first:

Row | pIC50 (HepG2) | pIC50 (MCF7) | pIC50 (A549) | Structure (SMILES) | pIC50 [8] | pIC50 (HT-29 [9]) | other results
12 | 5.49 | 4.93 | 5.13 | C=C(c1ccc(OC)c(/C=C2/C(=O)Nc3cc(Cl)ccc32)c1)c1cc(OC)c(OC)c(OC)c1 | 4.94 | 5.64 | 
13 | 5.60 | 4.85 | 5.02 | COc1ccc(C(=O)c2cc(OC)c(OC)c(OC)c2)cc1/C=C1/C(=O)Nc2ccc(Cl)cc21 | 4.53 | 5.49 | 
14 | 6.05 | 5.50 | 5.83 | C=C(c1ccc(OC)c(/C=C2/C(=O)Nc3ccc(OC)cc32)c1)c1cc(OC)c(OC)c(OC)c1 | 5.30 | 6.97 | 
15 | 6.73 | 6.41 | 7.03 | COc1ccc(C(=O)c2cc(OC)c(OC)c(OC)c2)cc1/C=C1/C(=O)Nc2ccc(F)cc21 | 5.01 | 7.31 | Activity (HT-29 [12]): 56.82%; Activity (HT-29 [13]): 5.42%; IC50 (Tubulin): 1.01 µM; Activity (HT-29 [1]): 0.98%; Activity (HT-29 [14]): 1.36%; Activity (HT-29 [2]): 83.8%; Activity (HT-29 [15]): 2.92%; viability at 0.01 µM (HT-29 [3]): 86.5%; Activity (HT-29 [4]): 9.67%; Activity (HT-29 [16]): 0.18%; Activity (HT-29 [17]): 24.46%; Activity (HT-29 [5]): 47.12%; Activity (HT-29 [18]): 41.27%; Activity (HT-29 [6]): 2.88%; Activity (HT-29 [19]): 81%; Activity (HT-29 [7]): 2.47%; viability at 0.05 µM (HT-29 [20]): 67.2%; Activity (HT-29 [10]): 0.35%; Activity (HT-29 [11]): 50.06%
16 | 7.02 | 6.57 | 7.10 | COc1ccc2c(c1)/C(=C\c1cc(C(=O)c3cc(OC)c(OC)c(OC)c3)ccc1OC)C(=O)N2 | 5.10 | 7.35 | Activity (HT-29 [12]): 49.8%; Activity (HT-29 [13]): 4.97%; IC50 (Tubulin): 1.23 µM; Activity (HT-29 [1]): 0.83%; Activity (HT-29 [14]): 0.91%; Activity (HT-29 [2]): 87.7%; Activity (HT-29 [15]): 3.52%; viability at 0.01 µM (HT-29 [3]): 88.7%; Activity (HT-29 [4]): 8.34%; Activity (HT-29 [16]): 0.62%; Activity (HT-29 [17]): 18.7%; Activity (HT-29 [5]): 21.69%; Activity (HT-29 [18]): 48.01%; Activity (HT-29 [6]): 2.16%; Activity (HT-29 [19]): 83.1%; Activity (HT-29 [7]): 4.87%; viability at 0.05 µM (HT-29 [20]): 72.8%; Activity (HT-29 [10]): 0.43%; Activity (HT-29 [11]): 73.61%
17 | 7.08 | 5.40 | 5.93 | C=C(c1ccc(OC)c(/C=C2/C(=O)Nc3ccc(F)cc32)c1)c1cc(OC)c(OC)c(OC)c1 | 5.50 | 7.09 | 
